These results are taken from patent publication US20110171135A1, “PEST-CONTROL COMPOSITIONS AND METHODS HAVING HIGH TARGET AND LOW NON-TARGET ACTIVITY” (priority 2008, published 2011).

The target of one assay is T1, tyramine receptor (TyrR) (Drosophila melanogaster, UniProt P22270).
T1 construct: The open reading frame of the Drosophila tyramine receptor (TyrR) may be amplified via PCR; expressed in transfected cells; host or cells: Drosophila Schneider cells
T1 sequence (P22270 27-601): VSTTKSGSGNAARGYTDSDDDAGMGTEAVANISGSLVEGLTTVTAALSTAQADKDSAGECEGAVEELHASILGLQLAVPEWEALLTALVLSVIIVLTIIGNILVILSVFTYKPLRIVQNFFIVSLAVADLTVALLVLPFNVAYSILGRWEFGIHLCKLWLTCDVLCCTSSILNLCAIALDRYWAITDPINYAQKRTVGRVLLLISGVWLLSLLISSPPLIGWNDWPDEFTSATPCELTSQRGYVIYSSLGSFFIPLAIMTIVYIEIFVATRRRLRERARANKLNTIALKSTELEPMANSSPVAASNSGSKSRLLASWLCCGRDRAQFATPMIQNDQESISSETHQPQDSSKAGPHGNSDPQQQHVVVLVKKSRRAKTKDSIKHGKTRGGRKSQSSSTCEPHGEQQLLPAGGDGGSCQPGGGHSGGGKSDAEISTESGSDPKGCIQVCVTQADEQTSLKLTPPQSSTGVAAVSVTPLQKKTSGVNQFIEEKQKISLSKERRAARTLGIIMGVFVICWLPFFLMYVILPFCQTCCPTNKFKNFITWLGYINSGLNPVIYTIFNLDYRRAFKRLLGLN
Kind of assay: Tyramine receptor binding with 3H-tyramine in transfected Schneider cells. The text has this: Tyramine receptor may be amplified, for example, from a Drosophila melanogaster head cDNA phage library. Phage DNA may be purified from this library by known methods using a liquid culture lysate. The open reading frame of the Drosophila tyramine receptor (TyrR) may be amplified via PCR, and the PCR product may be digested, and the TyrR open reading frame may be inserted into an expression vector using known methods, and transfected Schneider cell clones may be prepared.
Tyramine receptor binding/uptake may be performed to determine which of the transfected clones have the highest levels of functionally active tyramine receptor protein, and the selected clone may be propagated and stored in liquid nitrogen. Aliquots of the selected clone are grown for whole cell binding and for plasma membrane preparation for kinetic and screening studies.
For binding studies, cells transfected with the tyramine receptor (about 1×10^6 cells/ml) are cultured in each well of a multi-well plate, and binding is assessed using ^3H-tyramine and unlabeled tyramine. […] Saturation binding experiments may be performed to determine Bmax and Kd values for TyrR.

Assay [1] relates to tyramine receptor mutant (TyrRneo30) strains. Format: in vivo, Drosophila. The settings on record: topically applied at LD50 determined against wild type; mortality 24 h after treatment; FIG. 4. The protocol:
LD50 values of tested chemicals (determined against wild type Drosophila) were topically applied against wild type and tyramine receptor mutant (TyrRneo30) strains. Mortality was determined 24 h after treatment. Data are the average of three replicates, 5 flies per replicate. This experiment was repeated five times.

Assay [2] has as its system wild-type strain of E. coli. Kind of assay: MIC over successive weeks (resistance development) in E. coli. Format: cell-based. The following applies: MIC determined weekly and applied, repeated for 4 weeks. The protocol: Test compositions and conventional pesticides are compared to determine their respective ability to maintain pesticidal effectiveness over successive generations of pest species. For example, a wild-type strain of E. coli is treated with both penicillin (group 1) and a test composition from Table 1 or Table 2 (group 2). MIC (minimum inhibitory concentration; the lowest concentration of an antibacterial that will inhibit the visible growth of a microorganism after overnight incubation) values are determined at 1-week post-treatment for both groups, and the appropriate MIC amount is applied to both test populations. This is repeated for 4 weeks. […] In contrast, the MIC value for group 2 remains static, indicating a lack of resistance development among the group 2 population.

In the case of `NCCc1ccc(O)cc1` [Blend 3H-tyramine, ^3H-tyramine], the “3H-tyramine concentration at which maximum specific binding occurs” value at tyramine receptor (TyrR) (cells transfected with the tyramine receptor) is recorded as “about 5 nM”.
For `Cc1ccc(C(C)C)cc1O` [carvacrol], the “effect (mortality) on Drosophila expressing a mutant form of the tyramine receptor” value in assay [1] was “did not affect”.
Consider `NCCc1ccc(O)cc1` [tyramine], for which the “response of untransfected cells to tyramine” value on tyramine receptor (TyrR) (untransfected cells, concentration as high as about 100 μM) was “do not respond”.
As to penicillin, the “course of the MIC value over time (resistance development)” value in assay [2] is on record as “increases over time”.
